According to ChEMBL document CHEMBL1201862, “PubChem BioAssay data set” (2004):
Values joined by “and” are separate entries in the source; they are usually repeats but may differ in a detail not shown here. Equal values may be shown once.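 Briefly, cells in 96-well plates were exposed to five compound concentrations for 48 h, and endpoints were estimated by linear interpolation. GI50 is the concentration that inhibits growth by half.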 Active and inactive are the calls of the source. No stated cut-off is given here; in the data, active = GI50 up to about 1.1 µM and inactive = higher.

What was measured:
Assay in all cases: NCI anticancer screen, dose series, 48 h
ACHN = tested on: ACHN
HL-60 = tested on: HL-60
HOP-62 = tested on: HOP-62
KM12 = tested on: KM12
LOX IMVI = tested on: LOX IMVI
M14 = tested on: M14
MCF7 = tested on: MCF7
MDA-MB-231 = tested on: MDA-MB-231
NCI-H460 = tested on: NCI-H460
OVCAR-5 = tested on: OVCAR-5
PC-3 = tested on: PC-3
SF-539 = tested on: SF-539
SK-MEL-5 = tested on: SK-MEL-5
SW-620 = tested on: SW-620
UACC-62 = tested on: UACC-62
UO-31 = tested on: UO-31
IGROV-1 = tested on: IGROV-1
COLO 205 = tested on: COLO 205

| Compound | GI50 (ACHN) | GI50 (HL-60) | GI50 (HOP-62) | GI50 (KM12) | GI50 (LOX IMVI) | GI50 (M14) | GI50 (MCF7) | GI50 (MDA-MB-231) | GI50 (NCI-H460) | GI50 (OVCAR-5) | GI50 (PC-3) | GI50 (SF-539) | GI50 (SK-MEL-5) | GI50 (SW-620) | GI50 (UACC-62) | GI50 (UO-31) | GI50 (IGROV-1) | GI50 (COLO 205) |
| --- | --- | --- | --- | --- | --- | --- | --- | --- | --- | --- | --- | --- | --- | --- | --- | --- | --- | --- |
| N=C(N)N/N=C/c1c(-c2cc([N+](=O)[O-])c(Cl)cc2Cl)nc2sccn12 | 527 nM (active) and 1.67 µM (inactive) | 2.27 µM (inactive) and 1.53 µM (inactive) | 1.89 µM (inactive) | 168 nM (active) and 1.19 µM (inactive) | 130 nM (active) and 1.18 µM (inactive) | 1.66 µM (inactive) | 1.26 µM (inactive) | 200 nM (active) and 2.02 µM (inactive) | 1.86 µM (inactive) and 1.73 µM (inactive) | 1.87 µM (inactive) | 1.45 µM (inactive) and 2.01 µM (inactive) | 1.53 µM (inactive) and 1.85 µM (inactive) | 1.58 µM (inactive) and 1.35 µM (inactive) | 435 nM (active) and 1.27 µM (inactive) | 1.56 µM (inactive) and 1.94 µM (inactive) | 2.05 µM (inactive) and 1.29 µM (inactive) | – | – |
| O=C1/C(=N/O)Cc2c(Br)ccc(Br)c21 | 40.7 µM (inactive) | 26.9 µM (inactive) | > 100 µM (inactive) | 67.3 µM (inactive) | 31.9 µM (inactive) | > 100 µM (inactive) | 36.1 µM (inactive) | 46.9 µM (inactive) | 37.6 µM (inactive) | > 100 µM (inactive) | 27.8 µM (inactive) | > 100 µM (inactive) | 32.4 µM (inactive) | 63.5 µM (inactive) | – | > 100 µM (inactive) | 40 µM (inactive) | – |
| Cc1nc2ccc(C(F)(F)F)cc2nc1NCc1ccc(Cl)c(Cl)c1 | 14.8 µM (inactive) | 16.7 µM (inactive) | 14.4 µM (inactive) | 14.2 µM (inactive) | 15.3 µM (inactive) | – | 10 µM (inactive) | 15.8 µM (inactive) | 32.3 µM (inactive) | 13.1 µM (inactive) | 12.9 µM (inactive) | 17.5 µM (inactive) | 19.6 µM (inactive) | 18.9 µM (inactive) | 3.28 µM (inactive) | 15.9 µM (inactive) | 16.6 µM (inactive) | 15.4 µM (inactive) |
| CC(=O)c1ccc2c(c1)CC1(C2)Cc2ccc3c(c2C1=O)CCC3 (stereo not drawn) | 27.7 µM (inactive) | 8.26 µM (inactive) | 38.9 µM (inactive) | 28.2 µM (inactive) | 24.5 µM (inactive) | 20 µM (inactive) | 22.5 µM (inactive) | 35.6 µM (inactive) | 29.3 µM (inactive) | 36.8 µM (inactive) | 21.6 µM (inactive) | 27.7 µM (inactive) | 13.3 µM (inactive) | 41 µM (inactive) | 22.1 µM (inactive) | 28.4 µM (inactive) | 55.2 µM (inactive) | 18.3 µM (inactive) |
| c1ccc2c(c1)nc1n2sc2nc3ccccc3n21 | – | > 100 µM (inactive) | – | > 100 µM (inactive) | > 100 µM (inactive) | > 100 µM (inactive) | 35.6 µM (inactive) | > 100 µM (inactive) | > 100 µM (inactive) | > 100 µM (inactive) | > 100 µM (inactive) | > 100 µM (inactive) | > 100 µM (inactive) | > 100 µM (inactive) | 51.6 µM (inactive) | > 100 µM (inactive) | > 100 µM (inactive) | > 100 µM (inactive) |
| CCCCC(CCCC)=NNC(=S)SC | 29.6 µM (inactive) | 20.7 µM (inactive) | 40.6 µM (inactive) | – | 27.3 µM (inactive) | 17.3 µM (inactive) | 28.6 µM (inactive) | 28.3 µM (inactive) | 30.3 µM (inactive) | 38.2 µM (inactive) | 40.1 µM (inactive) | 26.2 µM (inactive) | 16.1 µM (inactive) | 38.9 µM (inactive) | 22 µM (inactive) | 24.7 µM (inactive) | – | 36.4 µM (inactive) |
| Cn1c2ccccc2c2ccc3c(c21)C(=O)c1ccc2c4ccccc4n(C)c2c1C3=O | > 100 µM (inactive) | > 100 µM (inactive) | > 100 µM (inactive) | > 100 µM (inactive) | > 100 µM (inactive) | > 100 µM (inactive) | 97.1 µM (inactive) | > 100 µM (inactive) | > 100 µM (inactive) | > 100 µM (inactive) | > 100 µM (inactive) | > 100 µM (inactive) | > 100 µM (inactive) | > 100 µM (inactive) | > 100 µM (inactive) | > 100 µM (inactive) | > 100 µM (inactive) | > 100 µM (inactive) |
| CC1(CNCc2ccccc2)CC(CCc2ccccc2)N(C(=O)c2ccc([N+](=O)[O-])cc2)C1Cc1ccc(O)cc1 (stereo not drawn) | 12 µM (inactive) | 11.3 µM (inactive) | 15.8 µM (inactive) | 15.6 µM (inactive) | 12.6 µM (inactive) | 13.7 µM (inactive) | 5.24 µM (inactive) | 10.3 µM (inactive) | 14 µM (inactive) | 17.6 µM (inactive) | 10.7 µM (inactive) | 17.1 µM (inactive) | 5.35 µM (inactive) | 21.5 µM (inactive) | 13.1 µM (inactive) | 11.3 µM (inactive) | 15 µM (inactive) | 6.5 µM (inactive) |
| C=C(C)CCC1CCCCC(CN(C)C)C1=O (stereo not drawn) | > 100 µM (inactive) | > 100 µM (inactive) | > 100 µM (inactive) | > 100 µM (inactive) | > 100 µM (inactive) | > 100 µM (inactive) | 75 µM (inactive) | > 100 µM (inactive) | > 100 µM (inactive) | > 100 µM (inactive) | > 100 µM (inactive) | > 100 µM (inactive) | > 100 µM (inactive) | > 100 µM (inactive) | > 100 µM (inactive) | > 100 µM (inactive) | > 100 µM (inactive) | > 100 µM (inactive) |
| Oc1ccccc1/C=N/c1nc2cc3sc(/N=C/c4ccccc4O)nc3cc2s1 | 46.3 µM (inactive) | 4.44 µM (inactive) | > 80.4 µM (inactive) | > 66.8 µM (inactive) | 34.2 µM (inactive) | 97.1 µM (inactive) | 12.5 µM (inactive) | > 100 µM (inactive) | 4.61 µM (inactive) | > 64.7 µM (inactive) | > 89.3 µM (inactive) | > 85.5 µM (inactive) | > 47.9 µM (inactive) | 20.7 µM (inactive) | > 100 µM (inactive) | > 35.9 µM (inactive) | 60 µM (inactive) | 3.3 µM (inactive) |
| CC1(C)CCCCCC(C)(CCCCCCCCCCCO)C1=O (stereo not drawn) | 12.8 µM (inactive) | 14.7 µM (inactive) | 17.7 µM (inactive) | 18.1 µM (inactive) | 15.4 µM (inactive) | – | 16.1 µM (inactive) | 16.3 µM (inactive) | 17.1 µM (inactive) | 17.2 µM (inactive) | 16.1 µM (inactive) | 16.7 µM (inactive) | 16.7 µM (inactive) | 18.4 µM (inactive) | 15.5 µM (inactive) | 17 µM (inactive) | 18.2 µM (inactive) | 17.1 µM (inactive) |
